In data set [1] the test system is Botrytis cinerea. The data set can be described thus: In vivo preventive test on Botrytis cinerea (grey mould) on gherkin, Examples B, Q1 and R2. Conditions: for pest or weed control at 500 ppm / pest or weed control at 100 ppm: Botrytis cinerea.
Data set [2] in a line: Measurement of LogP values by HPLC on reversed phase columns (EEC directive 79/831 Annex V.A8). The class given is physicochemical. Conditions: method [a]: LC-UV, acidic range, 0.1% formic acid in water and acetonitrile as eluent; Table 1. As to the method:
Measurement of Log P values was performed as outlined above.

The test system of data set [3] is Pyrenophora teres. The experiment in a line: In vivo preventive test on Pyrenophora teres (net blotch on barley), Examples D, Q2 and R4. Conditions: Pyrenophora teres, 336 h; for pest or weed control at 100 ppm: Example R4, rate of application 100 ppm.
Data set [4] deals with Sphaerotheca fuliginea. The experiment in a line: In vivo preventive test on Sphaerotheca fuliginea (powdery mildew on cucurbits), Examples F and R6. Conditions: Podosphaera fuliginea, 360 h; 500 ppm of active ingredient; gherkin, preventive spray, evaluated 15 days after inoculation; read-out: efficacy.
Data set [5] relates to Uromyces appendiculatus. The data set can be described thus: In vivo preventive test on Uromyces appendiculatus (bean rust), Examples G and R7. Conditions: 264 h, 500 ppm of active ingredient, bean, preventive spray, evaluated 11 days after inoculation, read-out: efficacy.
Data set [6] deals with Puccinia recondita. The experiment in a line: In vivo preventive test on Puccinia recondita (brown rust on wheat), Examples C and R3. Particulars: Puccinia recondita, 264 h; 500 ppm of active ingredient; wheat, preventive spray, evaluated 11 days after inoculation; read-out: efficacy.
The test system of data set [7] is Septoria tritici. The data set can be described thus: In vivo preventive test on Septoria tritici (leaf spot on wheat), Examples E, Q3 and R5. Particulars: Zymoseptoria tritici, 576 h, 500 ppm of active ingredient; wheat, preventive spray, evaluated 24 days after inoculation; read-out: efficacy.
Where [8] appears, read: Example R2, rate of application 100 ppm.
Where [9] appears, read: Example R2, rate of application 500 ppm.
Where [10] appears, read: 500 ppm of active ingredient, preventive spray, evaluated 14 days after inoculation, read-out: efficacy.
The mark [11] stands for this setting: 500 ppm of active ingredient, preventive spray, evaluated 4 to 5 days after inoculation, read-out: efficacy.
Setting [12] is: Example R2, rate of application 100 ppm, read-out: Efficacy in %.
Where [13] appears, read: Example R2, rate of application 500 ppm, read-out: Efficacy in %.
The mark [14] stands for this setting: Example R4, rate of application 500 ppm, read-out: Efficacy in %.

One may read the chromatographic logP as lipophilicity estimated from chromatographic retention.

Like-named read-outs stand apart in the source and are kept apart here.

Turning to `OC(Cc1ccc(Cl)cc1F)(Cn1cnc(Br)c1)C1(Cl)CC1` (racemic) [drawing 79, reference compound], the Efficacy in % is listed as 0% in data set [1] (setting [8]) and 19% in data set [1] (setting [9]).

As for `N#Cc1cn(CC(O)(Cc2ccc(Cl)cc2F)C2(Cl)CC2)cn1` (racemic) [drawing 81, reference compound], the Efficacy in % in data set [1] (setting [8]) and in data set [1] (setting [9]) was 0% in each case.

`OC(Cc1ccc(Cl)cc1F)(Cn1cnc(Cl)c1)C1(Cl)CC1` (racemic) [drawing 83, reference compound]: the Efficacy in % in data set [1] (setting [8]) and in data set [1] (setting [9]) was 0% in each case.

Molecule `OC(Cc1cccnc1Cl)(Cn1cncc1Cl)C1(Cl)CC1` (centres unmarked) [Example I-07] returned a chromatographic logP in data set [2] of 1.57. In addition, the pest or weed control at 500 ppm in data set [3] (setting [10]) was 70 to 79%; in data set [4], 90 to 100%; in data set [5] it was 90 to 100%; in data set [6], 80 to 89%; in data set [7], 90 to 100%.

Turning to `O=Cc1cncn1CC(O)(Cc1ccccc1Cl)C1(Cl)CC1` (centres unmarked) [Example I-12], the pest or weed control at 500 ppm in data set [3] (setting [10]) lay within 90 to 100%; in data set [4], 90 to 100%; in data set [5], 90 to 100%; in data set [6], 80 to 89%; in data set [7] it was 90 to 100%.

For the molecule `N#CCc1cncn1CC(O)(Cc1ccccc1Cl)C1(Cl)CC1` (centres unmarked) [Example I-21], in data set [2], the chromatographic logP is 1.66. For the same molecule, the pest or weed control at 500 ppm fell in the range of 90 to 100% in data set [1] (setting [11]); 90 to 100% in data set [4]; 70 to 79% in data set [5]; 80 to 89% in data set [6]; 70 to 79% in data set [7].

Regarding `N#Cc1cncn1CC(O)(Cc1ccnc(Br)c1Br)C1(Cl)CC1` (centres unmarked) [Example I-48], the pest or weed control at 500 ppm is 70 to 79% in data set [3] (setting [10]); 90 to 100% in data set [4]; 90 to 100% in data set [5]; 80 to 89% in data set [6]; 90 to 100% in data set [7].

Consider `Cc1ccc(CC(O)(Cn2cncc2C#N)C2(Cl)CC2)c(C)c1` (centres unmarked) [Example I-51], for which the pest or weed control at 500 ppm in data set [3] (setting [10]) lay within 90 to 100%; in data set [4], 90 to 100%; in data set [5], 80 to 89%; in data set [6], 90 to 100%; in data set [7], 90 to 100%.

For the molecule `N#Cc1cncn1CC(O)(Cc1cc(Cl)ncc1Cl)C1(Cl)CC1` (centres unmarked) [Example I-56], the chromatographic logP in data set [2] came out at 2.62. Also, the pest or weed control at 500 ppm was 70 to 79% in data set [3] (setting [10]); 90 to 100% in data set [4]; 90 to 100% in data set [5]; 80 to 89% in data set [6]; 90 to 100% in data set [7].

On to `Cc1cccc(CC(O)(Cn2cncc2C#N)C2(Cl)CC2)c1` (centres unmarked) [Example I-59], for which the pest or weed control at 500 ppm in data set [1] (setting [11]) lay within 90 to 100%; in data set [4], 90 to 100%; in data set [5] it was 90 to 100%; in data set [6], 80 to 89%; in data set [7], 90 to 100%.

`N#Cc1cncn1CC(O)(Cc1cccc(Cl)c1Cl)C1CCC1` (centres unmarked) [Example I-85]: the chromatographic logP in data set [2] worked out at 3.31. Further, the pest or weed control at 500 ppm in data set [3] (setting [10]) is 80 to 89%; in data set [4], 90 to 100%; in data set [5] it was 90 to 100%; in data set [6], 90 to 100%; in data set [7] it was 90 to 100%.

`OC(Cc1ccccc1C(F)(F)F)(Cn1cncc1Cl)C1(Cl)CC1` (centres unmarked) [Example I-89] returned a chromatographic logP in data set [2] of 2.62. Also, the pest or weed control at 500 ppm in data set [3] (setting [10]) fell in the range of 80 to 89%; in data set [4], 90 to 100%; in data set [5], 90 to 100%; in data set [6] it was 80 to 89%.

As to `N#Cc1cncn1CC(O)(Cc1ccc(Cl)cc1F)CC1CC1` (centres unmarked) [Example I-120], the pest or weed control at 500 ppm in data set [3] (setting [10]) lay within 70 to 79%; in data set [4], 90 to 100%; in data set [5] it was 90 to 100%; in data set [6] it was 90 to 100%; in data set [7], 70 to 79%.

Turning to `COC(Cc1ccc(Cl)cc1F)(Cn1cncc1C#N)C1CC1` (centres unmarked) [Example I-121], the chromatographic logP in data set [2] stood at 3.31. Moreover, the pest or weed control at 500 ppm in data set [3] (setting [10]) fell in the range of 70 to 79%; in data set [4], 90 to 100%; in data set [5], 90 to 100%; in data set [6] it was 80 to 89%; in data set [7], 90 to 100%.

In data set [2], `CC(C)C(O)(Cc1ccc(F)cc1F)Cn1cncc1C#N` (centres unmarked) [Example I-128] came in with a chromatographic logP of 2.52. The pest or weed control at 500 ppm in data set [1] (setting [11]), in data set [4], in data set [5], in data set [6] and in data set [7] was 90 to 100% each time.

For `N#Cc1cncn1CC(O)(Cc1ccccc1F)C1CCC1` (centres unmarked) [Example I-137], the chromatographic logP in data set [2] amounted to 2.46. In addition, the pest or weed control at 500 ppm in data set [1] (setting [11]) was 70 to 79%; in data set [4] it was 90 to 100%; in data set [5] it was 90 to 100%; in data set [6] it was 80 to 89%; in data set [7] it was 90 to 100%.

In turn, `Cc1cccc(CC(O)(Cn2cncc2Cl)C2(Cl)CC2)c1F` (centres unmarked) [Example I-143] had a chromatographic logP in data set [2] of 2.35. Also, the pest or weed control at 500 ppm in data set [3] (setting [10]) lay in the range of 70 to 79%; in data set [4] it was 90 to 100%; in data set [6] it was 90 to 100%; in data set [7], 90 to 100%.

With `N#Cc1cncn1CC(O)(Cc1cccc(F)c1F)C1CCC1` (centres unmarked) [Example I-148], in data set [2], the chromatographic logP turned out to be 2.57. In addition, the pest or weed control at 500 ppm in data set [3] (setting [10]) was in the range of 80 to 89%; in data set [5], 90 to 100%; in data set [6], 90 to 100%; in data set [7], 90 to 100%.

As to `N#Cc1cncn1CC(O)(Cc1cccc(F)c1F)CC1CC1` (centres unmarked) [Example I-151], in data set [2], the chromatographic logP is 2.66. The pest or weed control at 500 ppm in data set [3] (setting [10]) lay in the range of 70 to 79%; in data set [4] it was 90 to 100%; in data set [5] it was 90 to 100%; in data set [6], 80 to 89%; in data set [7], 90 to 100%.

`N#Cc1cncn1CC(O)(Cc1ccccc1I)C1(Cl)CC1` (centres unmarked) [Example I-166]: the chromatographic logP in data set [2] was found to be 3.13. Besides, the pest or weed control at 500 ppm in data set [3] (setting [10]) lay within 80 to 89%; in data set [4], 90 to 100%; in data set [5] it was 90 to 100%; in data set [6], 90 to 100%; in data set [7], 70 to 79%.

With `OC(Cc1ccccc1Cl)(Cn1cnc(Br)c1)C1(Cl)CC1` (centres unmarked) [drawing 70, reference compound], the pest or weed control at 100 ppm in data set [1] (setting [12]) came out at 5%. The pest or weed control at 500 ppm in data set [1] (setting [13]) was determined as 0%.

`N#Cc1cn(CC(O)(Cc2ccccc2Cl)C2(Cl)CC2)cn1` (centres unmarked) [drawing 72, reference compound]: the pest or weed control at 100 ppm in data set [1] (setting [12]) came out at 0%. Moreover, the pest or weed control at 500 ppm in data set [1] (setting [13]) was found to be 0%.

In the case of `C#Cc1cn(CC(O)(Cc2ccccc2F)C2(Cl)CC2)cn1` (centres unmarked) [drawing 74, reference compound], in data set [1] (setting [12]), the pest or weed control at 100 ppm turned out to be 0%. The pest or weed control at 500 ppm in data set [1] (setting [13]) was 0%.

As to `OC(Cc1ccccc1F)(Cn1cnc(Cl)c1)C1(Cl)CC1` (centres unmarked) [drawing 76, reference compound], the pest or weed control at 100 ppm in data set [1] (setting [12]) amounted to 0%. The pest or weed control at 500 ppm in data set [1] (setting [13]) was found to be 0%.

As for `OC(Cc1ccccc1F)(Cn1ccnc1Cl)C1(Cl)CC1` (centres unmarked) [drawing 77, reference compound], the pest or weed control at 100 ppm in data set [1] (setting [12]) was found to be 0%. For the same molecule, the pest or weed control at 500 ppm in data set [1] (setting [13]) turned out to be 0%.

`N#Cc1cn(CC(O)(Cc2ccccc2F)C2(Cl)CC2)cn1` (centres unmarked) [drawing 85, reference compound]: the pest or weed control at 100 ppm in data set [1] (setting [12]) amounted to 0%. Further, the pest or weed control at 500 ppm in data set [1] (setting [13]) amounted to 0%.

With `N#Cc1cn(CC(O)(Cc2ccccc2Cl)C2(Cl)CC2)cn1` (centres unmarked) [drawing 108, reference compound], the pest or weed control at 100 ppm in data set [3] (read-out: Efficacy in %) was 0%. Further, the pest or weed control at 500 ppm in data set [3] (setting [14]) stood at 0%.

As to `C#Cc1cn(CC(O)(Cc2ccccc2F)C2(Cl)CC2)cn1` (centres unmarked) [drawing 110, reference compound], the pest or weed control at 100 ppm in data set [3] (read-out: Efficacy in %) turned out to be 0%. The pest or weed control at 500 ppm in data set [3] (setting [14]) came to 0%.

Regarding `OC(Cc1ccccc1F)(Cn1cnc(Cl)c1)C1(Cl)CC1` (centres unmarked) [drawing 112, reference compound], the pest or weed control at 100 ppm in data set [3] (read-out: Efficacy in %) was determined as 0%. For the same molecule, the pest or weed control at 500 ppm in data set [3] (setting [14]) is 0%.

Take `OC(Cc1ccccc1F)(Cn1ccnc1Cl)C1(Cl)CC1` (centres unmarked) [drawing 113, reference compound]: the pest or weed control at 100 ppm in data set [3] (read-out: Efficacy in %) was 0%. For the same molecule, the pest or weed control at 500 ppm in data set [3] (setting [14]) is 0%.

In the case of `N#Cc1cn(CC(O)(Cc2ccccc2F)C2(Cl)CC2)cn1` (centres unmarked) [drawing 121, reference compound], the pest or weed control at 100 ppm in data set [3] (read-out: Efficacy in %) stood at 0%. For the same molecule, the pest or weed control at 500 ppm in data set [3] (setting [14]) turned out to be 0%.

Source of the values: patent publication US10231453B2, “5-substituted imidazole derivatives” (BAYER CROPSCIENCE AKTIENGESELLSCHAFT, priority 2015, dated 2019).
